According to US20050164331A1, “Method and device for detecting toxic material in water using microbial fuel cell” (priority 2002, published 2005):
Like-named read-outs stand apart in the source and are kept apart here.

What was measured:
[1] = system: electrochemically active bacteria in the sludge
From the text: The sample enters into the anode part after passing through the first and the second pretreatment tanks(2,3). The anode part is composed of a carbon felt and platinum(Pt) wire, while its inside part is filled usually with a microorganism catalyst which generates electrochemical energy using organic raw material. The cathode part is filled with ordinary water. Namely, the sample containing organic materials enters into the anode and the water-saturated with air enters the cathode. Now the organic materials are decomposed by microorganism at the anode part of the fuel cell and a current is generated. The current moves along the Pt wire and is measured by the voltmeter.
Active sludge was introduced into the anode part so that the electrochemically active bacteria in the sludge are attached to the electrode and densely cultured. To the cathode part, water saturated with air was incorporated, keeping a certain potential difference so as to make an efficient biological electrochemical reaction occur in the microbial fuel cell. Into this microbial fuel cell, added were glucose and glutamic acid(CODcr 200 ppm, which means the chemical oxygen demand due to the potassium dichromate) as fuel and the generated current was measured by the volt meter(2000 multimeter, Keithley Instrument. Inc, USA) at 60 seconds interval, while adding to the used fuel cell, Cr^6+ standard solution successively in the concentration of 0.01 ppm, 0.02 ppm, 0.03 ppm, 0.04 ppm and 0.05 ppm.

golden dace = conditions: 8 ppm phenol introduced to water; cited from earlier work
[2] = microbial fuel cell with active sludge, fuel glucose and glutamic acid (CODcr 200 ppm), standard solution added successively at 0.01-0.05 ppm, current measured at 60 seconds interval

Compound | concentration at which the constantly generated current showed a sharp drop [1, 2] [ppm] | time required to determine the toxicity using fish (golden dace) [h] | concentration at which the constantly generated current showed a sharp drop [1] [ppm]
[Pb] [Pb, lead] | 0.04 |  | 
[Cr+6] [Cr^6+] | 0.04 |  | 
Oc1ccccc1 [phenol] |  | 8 | 0.03
